Experimental data published in PMC10447463, “Data-mining unveils structure–property–activity correlation of viral infectivity enhancing self-assembling peptides” (Nature Communications, 2023).
Where two headings read alike, the source gives them in different places.

Legend:
[1] = β-sheet content by ATR-FT-IR; format: physicochemical; conditions: for ß-sheet / %: ATR-FT-IR of lyophilised 1 mg/mL PNF solution, peak integral ratio 1625-1635 cm-1, measured once; for b -sheet / %: Fig. S7 panel A, β-sheet content by ATR-FT-IR
Outline: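 Spectra: 64 scans, 2 cm^-1, lyophilized PNF (1 mg/mL source). CR = 100 − 100 × filtrate/original fluorescamine signal; triplicate, ± SD.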

[2] = Turbidity, derived count rate of scattered light; format: physicochemical; conditions: for Count Rate / kcps: derived count rate of scattered light at 633 nm, 173°, from zeta-potential measurement, 0.1 mg/mL in 1 mM KCl after 1 d at 1 mg/mL in PBS, turbidity / microscopic aggregation, mean of triplicate
Outline: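 Samples: 1 mg/mL in PBS pH 7.4 (from DMSO), 1 d at RT, then diluted in 1 mM KCl immediately before measurement. Triplicates, two independent runs averaged.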

[3] = test system: HIV-1 infection of TZM-bl cells; test: HIV-1 infectivity enhancement assay, β-galactosidase luminescence; format: cell-based; conditions: for Rel-EFC: infection relative to EF-C (QCKIKQIINMWQ = 1); for Log10 Infection Rel EFC: log10 of infection relative to EF-C; for Log Infectivity: Log10 infection relative to EF-C, TZM-bl cells, asymmetric std dev errors; for Log10 Infection Rel EF-C: HIV-1 infection of TZM-bl cells; for Abs. Inf. / RLU s-1: absolute infection rate, peptide 1.3 µM on cells, virus preincubated 10 min with fibrils, read 3 days post infection, mean of triplicate; for Log10 of Rel to EFC (Feb2021): Log10 of infection relative to EF-C, all peptides of FigS16; for Abs. Inf.: absolute infection signal, HIV-1 on TZM-bl cells, β-galactosidase luminescence; for Log10 Inf. rel. to EF-C: log10 of HIV-1 infection of TZM-bl cells relative to EF-C (EF-C = 0)
[4] = Turbidity, derived count rate of scattered light; format: physicochemical; conditions: for Count Rate: derived count rate of scattered light (turbidity); for Log10 Count Rate: turbidity, derived count rate of scattered light, data of Figure 2D
[5] = Zeta-potential measurement; format: physicochemical; conditions: for Zeta pot. / mV: 1 mg/mL in PBS pH 7.4 from 10 mg/mL DMSO stock, 1 d RT, 60 µL diluted in 600 µL 1 mM KCl, Zetasizer Nano ZS, Smoluchowski, mean of triplicate
Outline: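 In this measurement, peptides aggregated for a day at RT in phosphate-buffered saline (pH 7.4, 1 mg/mL) are diluted into 1 mM potassium chloride, and the electrophoretic mobility is translated into zeta potential by Smoluchowski's relation.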

[6] = Log10 of derived count rate of scattered light (turbidity)
[7] = log10 of derived count rate of scattered light (turbidity)
[8] = logarithm of count rate in kcps
[9] = turbidity, Log10 of derived count rate of scattered light, Figure 3A source data
[10] = Fig. S7 panel A (plotted against β-sheet content)
[11] = Log10 of infection rate relative to EF-C, Figure 3A source data
[12] = infection rate relative to EF-C, log10, data of Figure 2D
[13] = infection rate relative to EF-C, log10, source data of Figure 2C
[14] = HIV-1 infection relative to EF-C, Fig 23 plot, panels A and B, mean of 3 values
[15] = HIV-1 infection relative to EF-C, Fig 23 plot, single data point, replicate 2
[16] = HIV-1 infection relative to EF-C, Fig 23 plot, single data point, replicate 3
[17] = n-fold infection vs virus only, relative to that of EF-C, 1.3 µM peptide
[18] = zeta potential of peptide assemblies
[19] = zeta-potential of peptide, source data of Figure 2C
[20] = zeta-potential of the peptide assemblies, mean, Figure 3A source data
[21] = Fig. S7 panel B (plotted against CR), rounded to two decimals
[22] = turbidity, log10 of derived count rate of scattered light

## KAKAQANM
[1]
  ß-sheet / %: 33%
  b -sheet / %: 32.8491%
[2]; [6]
  Log10 Count Rate: 1.628
[2]
  Count Rate / kcps: 43 kcps
[2]; [7]
  Log10 Count Rate: 1.628
[2]; [8]
  Log10 Count Rate: 1.6
[2]; [9]
  Log10 Count Rate: 1.628
[3]; 1.3 µM peptide
  Rel-EFC: 0,01
  Log10 Infection Rel EFC: -2,05
[3]; [10]
  Log Infectivity: -2.046
[3]; [11]
  Log10 Infection Rel EF-C: -2.05
[3]; [12]
  Log10 Infection Rel EF-C: -2.046
[3]; [13]
  Log10 Infection Rel EF-C: -2.046
[3]; [14]
  Inf. rel. EF-C: 0.02204
[3]; HIV-1 infection relative to EF-C, Fig 23 plot, single data point, replicate 1
  Inf. rel. EF-C: 0.03965
[3]; [15]
  Inf. rel. EF-C: 0.008224
[3]; [16]
  Inf. rel. EF-C: 0.01824
[3]
  Abs. Inf. / RLU s-1: 497 RLU s-1
[3]; [17]
  Inf. rel. EF-C: 0.01
[4]
  Count Rate: 42.5
  Log10 Count Rate: 1.628
[5]
  Zeta pot. / mV: -2.6 mV
[5]; [18]
  Zeta-Pot.: -2.62
[5]; [19]
  Zeta-Potential / mV: -2.065 mV
[5]; [20]
  Zeta-Potential / mV: -2.62 mV

## KFKFEFEF
[1]
  b -sheet / %: 40.95%
[2]; [6]
  Log10 Count Rate: 3.34
[2]
  Count Rate / kcps: 2186 kcps
[2]; [7]
  Log10 Count Rate: 3.34
[2]; [9]
  Log10 Count Rate: 3.34
[3]; 1.3 µM peptide
  Rel-EFC: 0,03
  Log10 Infection Rel EFC: -1,55
[3]; [10]
  Log Infectivity: -1.547
[3]; [11]
  Log10 Infection Rel EF-C: -1.55
[3]; [12]
  Log10 Infection Rel EF-C: -1.547
[3]; [13]
  Log10 Infection Rel EF-C: -1.547
[4]
  Count Rate: 2186
  Log10 Count Rate: 3.34
[5]; [18]
  Zeta-Pot.: -2.55
[5]; [19]
  Zeta-Potential / mV: -2.87 mV
[5]; [20]
  Zeta-Potential / mV: -2.55 mV

## KFKFKFQF
[1]
  b -sheet / %: 39.76%
[2]; [6]
  Log10 Count Rate: 3.015
[2]
  Count Rate / kcps: 1036 kcps
[2]; [7]
  Log10 Count Rate: 3.015
[2]; [9]
  Log10 Count Rate: 3.015
[3]; 1.3 µM peptide
  Rel-EFC: 0,8
  Log10 Infection Rel EFC: -0,1
[3]; [10]
  Log Infectivity: -0.09726
[3]; [21]
  Log Infectivity: -0.1
[3]; [11]
  Log10 Infection Rel EF-C: -0.1
[3]; [12]
  Log10 Infection Rel EF-C: -0.09726
[3]; [13]
  Log10 Infection Rel EF-C: -0.09726
[3]
  Log10 of Rel to EFC (Feb2021): -0.1
[4]
  Count Rate: 1036
  Log10 Count Rate: 3.015
[5]; [18]
  Zeta-Pot.: 15.2
[5]; [19]
  Zeta-Potential / mV: 16.32 mV
[5]; [20]
  Zeta-Potential / mV: 15.2 mV

## KFKFQFF
[1]
  b -sheet / %: 48.35%
[2]; [6]
  Log10 Count Rate: 1.577
[2]
  Count Rate / kcps: 38 kcps
[2]; [7]
  Log10 Count Rate: 1.577
[2]; [9]
  Log10 Count Rate: 1.577
[3]; 1.3 µM peptide
  Rel-EFC: 0,12
  Log10 Infection Rel EFC: -0,91
[3]; [10]
  Log Infectivity: -0.9142
[3]; [11]
  Log10 Infection Rel EF-C: -0.91
[3]; [12]
  Log10 Infection Rel EF-C: -0.9142
[3]; [13]
  Log10 Infection Rel EF-C: -0.9142
[3]
  Log10 of Rel to EFC (Feb2021): -0.91
[3]; peptide 0.26 µM, mean of n = 3, Figure 4A
  Abs. Infection at 0.26 µM: 476.7
[3]; peptide 0.26 µM, replicate 1, absolute infection signal, Figure 4A
  Infect 1 0.26 µM: 343.33
[3]; peptide 0.26 µM, replicate 2, absolute infection signal, Figure 4A
  Infect 2 0.26 µM: 603.33
[3]; peptide 0.26 µM, replicate 3, absolute infection signal, Figure 4A
  Infect 3 0.26 µM: 483.33
[3]; peptide 1.3 µM, mean of n = 3, Figure 4A
  Abs. Infection at 1.3 µM: 2850
[3]; peptide 1.3 µM, replicate 1, absolute infection signal, Figure 4A
  Infect 1 .3 µM: 3623.33
[3]; peptide 1.3 µM, replicate 2, absolute infection signal, Figure 4A
  Infect 2 1.3µM: 2253.33
[3]; peptide 1.3 µM, replicate 3, absolute infection signal, Figure 4A
  Infect 3 1.3 µM: 2673.33
[4]
  Count Rate: 37.77
  Log10 Count Rate: 1.577
[5]; [18]
  Zeta-Pot.: 6.903
[5]; [19]
  Zeta-Potential / mV: 6.903 mV
[5]; [20]
  Zeta-Potential / mV: 6.9 mV

## KFKFQFFF
[1]
  b -sheet / %: 49.11%
[2]; [6]
  Log10 Count Rate: 3.483
[2]
  Count Rate / kcps: 3039 kcps
[2]; [7]
  Log10 Count Rate: 3.483
[2]; [9]
  Log10 Count Rate: 3.483
[3]; 1.3 µM peptide
  Rel-EFC: 0,4
  Log10 Infection Rel EFC: -0,39
[3]; [10]
  Log Infectivity: -0.3936
[3]; [21]
  Log Infectivity: -0.39
[3]; [11]
  Log10 Infection Rel EF-C: -0.39
[3]; [12]
  Log10 Infection Rel EF-C: -0.3936
[3]; [13]
  Log10 Infection Rel EF-C: -0.3936
[3]
  Log10 of Rel to EFC (Feb2021): -0.39
[4]
  Count Rate: 3039
  Log10 Count Rate: 3.483
[5]; [18]
  Zeta-Pot.: 13.27
[5]; [19]
  Zeta-Potential / mV: 15.57 mV
[5]; [20]
  Zeta-Potential / mV: 13.27 mV

## KFKFQFN
[1]
  ß-sheet / %: 38%
  b -sheet / %: 38.13%
[2]; [6]
  Log10 Count Rate: 1.705
[2]
  Count Rate / kcps: 51 kcps
[2]; [8]
  Log10 Count Rate: 1.7
[2]; [9]
  Log10 Count Rate: 1.705
[2]; [22]
  Log10 Count Rate: 1.705
[3]; 1.3 µM peptide
  Rel-EFC: 0,02
  Log10 Infection Rel EFC: -1,74
[3]; [10]
  Log Infectivity: -1.744
[3]; [11]
  Log10 Infection Rel EF-C: -1.74
[3]; [12]
  Log10 Infection Rel EF-C: -1.744
[3]; [13]
  Log10 Infection Rel EF-C: -1.744
[3]; [14]
  Inf. rel. EF-C: 0.01184
[3]; [15]
  Inf. rel. EF-C: 0.01096
[3]; [16]
  Inf. rel. EF-C: 0.005798
[3]
  Abs. Inf. / RLU s-1: 270 RLU s-1
  Abs. Inf.: 270
  Log10 Inf. rel. to EF-C: -1.744
[3]; [17]
  Inf. rel. EF-C: 0.02
[4]
  Count Rate: 50.7
  Log10 Count Rate: 1.705
[5]
  Zeta-Pot.: 12.7
  Zeta pot. / mV: 12.7 mV
[5]; [19]
  Zeta-Potential / mV: 10.12 mV
[5]; [20]
  Zeta-Potential / mV: 12.7 mV

## KFKFQFNM
[1]
  b -sheet / %: 40.31%
[2]; [6]
  Log10 Count Rate: 2.12
[2]
  Count Rate / kcps: 132 kcps
[2]; [9]
  Log10 Count Rate: 2.12
[2]; [22]
  Log10 Count Rate: 2.12
[3]; 1.3 µM peptide
  Rel-EFC: 0,47
  Log10 Infection Rel EFC: -0,33
[3]; [10]
  Log Infectivity: -0.3265
[3]; [21]
  Log Infectivity: -0.33
[3]; [11]
  Log10 Infection Rel EF-C: -0.33
[3]; [12]
  Log10 Infection Rel EF-C: -0.3265
[3]; [13]
  Log10 Infection Rel EF-C: -0.3265
[3]
  Log10 of Rel to EFC (Feb2021): -0.33
  Abs. Inf.: 7067
  Log10 Inf. rel. to EF-C: -0.3265
[4]
  Count Rate: 131.8
  Log10 Count Rate: 2.12
[5]
  Zeta-Pot.: 13.9
[5]; [19]
  Zeta-Potential / mV: 18.4 mV
[5]; [20]
  Zeta-Potential / mV: 13.9 mV
